Common to all, as to format: cell-based
Assay [1] has as its system Escherichia coli NCTC 8196. Kind of assay: Minimum inhibitory concentration (MIC) in microtitre plates. Conditions: for Minimum inhibitory concentration (MIC) E. coli: Table 7, 48 hours at 37° C., MIC = ≦20% growth compared to control; for Minimum inhibitory concentration (MIC) E. coli NCTC 8196: Table 8, * = significant inhibition of growth, but not complete inhibition. The essentials: (§1)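 Compounds in DMSO, 1:2 dilution series; bacteria at 1–5×10^6 CFU/ml diluted 1:100 in CASO broth. Incubation 48 h at 37° C, growth read as OD 620 nm. MIC is the lowest concentration giving ≤20% growth relative to control; duplicates.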

Assay [2] deals with Staphylococcus hominis DMS 20328. Described as above. Conditions: Table 7; 48 hours at 37° C.; MIC = ≦20% growth compared to control. Summed up:
as §1

The subject of assay [3] is Trichophyton mentagrophytes ATCC 9533. The experiment in a line: Minimum inhibitory concentration (MIC), further microorganisms. Conditions: Table 8; * = significant inhibition of growth, but not complete inhibition. The essentials:
(§2)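 Broth microdilution in DMSO, 1:2 series; inocula adjusted to 1–5×10^6 CFU/ml then diluted 1:100 in CASO broth (bacteria, yeast) or Sabouraud 2% glucose broth (mould). Incubation 48 h at 37° C or 5 days at 28° C; MIC = lowest concentration giving ≦20% growth versus control by OD 620 nm.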

The test system of assay [4] is Klebsiella pneumonia ATCC 4352. The assay is described as above. Conditions: Table 8; * = significant inhibition of growth, but not complete inhibition. Summed up:
as §2

In assay [5] the test system is Enterococcus hirae ATCC 10541. The assay is described as above. Conditions: Table 8; * = significant inhibition of growth, but not complete inhibition. Summed up: as §2
Assay [6] deals with Epidermophyton floccosum DSM 10709. The assay is described as above. Conditions: Table 8; * = significant inhibition of growth, but not complete inhibition. Summed up:
as §2

Assay [7] has as its system Aspergillus niger ATCC 6275. The assay is described as above. Conditions: Table 8; * = significant inhibition of growth, but not complete inhibition. Summed up:
as §2

The subject of assay [8] is Salmonella choleraesuis ATCC 10708. The description is as above. Conditions: Table 8. Summed up:
as §2

Assay [9] concerns S. epidermidis ATCC 12228. The assay is described as above. Conditions: Table 8; * = significant inhibition of growth, but not complete inhibition. Summed up:
as §2

In assay [10] the test system is Micrococcus luteus ATCC 9341. Described as above. Conditions: Table 8; * = significant inhibition of growth, but not complete inhibition. The essentials:
as §2

Assay [11] has as its system Pseudomonas aeruginosa CIP A-22. Described as above. Conditions: Table 8. Summed up: as §2
The test system of assay [12] is Candida albicans ATCC 10231. The description is as above. Conditions: Table 8; * = significant inhibition of growth, but not complete inhibition. Summed up:
as §2

In assay [13] the test system is Staphylococcus aureus ATCC 9144. The description is as above. Conditions: Table 8; * = significant inhibition of growth, but not complete inhibition. The essentials: as §2

Converted amounts (≈) assume the structure as drawn.

As for `CCCCCCCCCCCCNc1nc(-c2ccccn2)nc(C)c1CC` [compound 12], in assay [1], the “Minimum inhibitory concentration (MIC) E. coli” value was determined as 120 mg/L (≈ 314 µM) and the “Minimum inhibitory concentration (MIC) E. coli NCTC 8196” value was greater than 60 mg/L. The “Minimum inhibitory concentration (MIC) S. hominis” value in assay [2] turned out to be 7.5 mg/L (≈ 19.6 µM). The “Minimum inhibitory concentration (MIC) Trichophyton mentagrophytes ATCC 9533” value in [3] amounted to 60 mg/L (≈ 157 µM). Moreover, in assay [4], the “Minimum inhibitory concentration (MIC) Klebsiella pneumonia ATCC 4352” value was greater than 60 mg/L. Besides, the “Minimum inhibitory concentration (MIC) Enterococcus hirae ATCC 10541” value in assay [5] is 7.5 mg/L (≈ 19.6 µM). Also, the “Minimum inhibitory concentration (MIC) Epidermophyton floccosum DSM 10709” value in [6] was “*30 μg/mL”. The “Minimum inhibitory concentration (MIC) Aspergillus niger ATCC 6275” value in assay [7] is greater than 60 mg/L. Further, the “Minimum inhibitory concentration (MIC) Salmonella choleraesuis ATCC 10708” value in assay [8] is greater than 60 mg/L. In assay [9], the “Minimum inhibitory concentration (MIC) S. epidermidis ATCC 12228” value was “*7.5 μg/mL”. In assay [10], the “Minimum inhibitory concentration (MIC) Micrococcus luteus ATCC 9341” value is less than 3.75 mg/L. Also, in assay [11], the “Minimum inhibitory concentration (MIC) Pseudomonas aeruginosa CIP A-22” value was greater than 60 mg/L. Besides, in assay [12], the “Minimum inhibitory concentration (MIC) Candida albicans ATCC 10231” value was “*60 μg/mL”. In addition, the “Minimum inhibitory concentration (MIC) Staphylococcus aureus ATCC 9144” value in assay [13] was found to be 15 mg/L (≈ 39.2 µM).
In the case of `CCCCCCCCCCCCCCCNc1nc(-c2ccccn2)nc(C)c1CC` [compound 90], in assay [1], the “Minimum inhibitory concentration (MIC) E. coli” value amounted to 120 mg/L (≈ 283 µM) and the “Minimum inhibitory concentration (MIC) E. coli NCTC 8196” value is greater than 60 mg/L. For the same compound, the “Minimum inhibitory concentration (MIC) S. hominis” value in assay [2] amounted to 30 mg/L (≈ 70.6 µM). Further, the “Minimum inhibitory concentration (MIC) Trichophyton mentagrophytes ATCC 9533” value in assay [3] is greater than 120 mg/L. Also, in assay [4], the “Minimum inhibitory concentration (MIC) Klebsiella pneumonia ATCC 4352” value was greater than 60 mg/L. Besides, the “Minimum inhibitory concentration (MIC) Enterococcus hirae ATCC 10541” value in assay [5] was 30 mg/L (≈ 70.6 µM). In addition, the “Minimum inhibitory concentration (MIC) Epidermophyton floccosum DSM 10709” value in assay [6] turned out to be 60 mg/L (≈ 141 µM). The “Minimum inhibitory concentration (MIC) Aspergillus niger ATCC 6275” value in assay [7] is greater than 120 mg/L. For the same compound, the “Minimum inhibitory concentration (MIC) Salmonella choleraesuis ATCC 10708” value in assay [8] is greater than 60 mg/L. Also, in assay [9], the “Minimum inhibitory concentration (MIC) S. epidermidis ATCC 12228” value is on record as “*30 μg/mL”. Moreover, the “Minimum inhibitory concentration (MIC) Micrococcus luteus ATCC 9341” value in assay [10] stood at 15 mg/L (≈ 35.3 µM). Besides, in [11], the “Minimum inhibitory concentration (MIC) Pseudomonas aeruginosa CIP A-22” value was greater than 60 mg/L. The “Minimum inhibitory concentration (MIC) Candida albicans ATCC 10231” value in [12] is “*60 μg/mL”. The “Minimum inhibitory concentration (MIC) Staphylococcus aureus ATCC 9144” value in assay [13] was “*30 μg/mL”.
Regarding `CCCCCCCCCCCCNc1cc(C(C)C)nc(-c2ccccn2)n1` [compound 48], in assay [1], the “Minimum inhibitory concentration (MIC) E. coli” value was 120 mg/L (≈ 314 µM) and the “Minimum inhibitory concentration (MIC) E. coli NCTC 8196” value is greater than 60 mg/L. Further, the “Minimum inhibitory concentration (MIC) S. hominis” value in assay [2] came out at 3.75 mg/L (≈ 9.8 µM). Further, the “Minimum inhibitory concentration (MIC) Trichophyton mentagrophytes ATCC 9533” value in assay [3] is recorded as “*60 μg/mL”. Also, the “Minimum inhibitory concentration (MIC) Klebsiella pneumonia ATCC 4352” value in assay [4] is greater than 60 mg/L. The “Minimum inhibitory concentration (MIC) Enterococcus hirae ATCC 10541” value in [5] is less than 3.75 mg/L. For the same compound, the “Minimum inhibitory concentration (MIC) Epidermophyton floccosum DSM 10709” value in [6] is given as “*60 μg/mL”. Also, the “Minimum inhibitory concentration (MIC) Aspergillus niger ATCC 6275” value in assay [7] is greater than 60 mg/L. In addition, in [8], the “Minimum inhibitory concentration (MIC) Salmonella choleraesuis ATCC 10708” value was greater than 60 mg/L. Also, the “Minimum inhibitory concentration (MIC) S. epidermidis ATCC 12228” value in [9] was less than 3.75 mg/L. The “Minimum inhibitory concentration (MIC) Micrococcus luteus ATCC 9341” value in assay [10] is less than 3.75 mg/L. Also, the “Minimum inhibitory concentration (MIC) Pseudomonas aeruginosa CIP A-22” value in assay [11] was greater than 60 mg/L. In addition, the “Minimum inhibitory concentration (MIC) Candida albicans ATCC 10231” value in assay [12] is “*15 μg/mL”. Besides, the “Minimum inhibitory concentration (MIC) Staphylococcus aureus ATCC 9144” value in assay [13] was less than 3.75 mg/L.
Regarding `COCCc1cc(NCCCCCCCCCCCCN)nc(-c2ccccn2)n1` [compound 79], in assay [1], the “Minimum inhibitory concentration (MIC) E. coli” value turned out to be 20 mg/L (≈ 48.4 µM) and the “Minimum inhibitory concentration (MIC) E. coli NCTC 8196” value was determined as 60 mg/L (≈ 145 µM). The “Minimum inhibitory concentration (MIC) S. hominis” value in assay [2] stood at 10 mg/L (≈ 24.2 µM). Further, the “Minimum inhibitory concentration (MIC) Trichophyton mentagrophytes ATCC 9533” value in assay [3] is greater than 60 mg/L. Moreover, in assay [4], the “Minimum inhibitory concentration (MIC) Klebsiella pneumonia ATCC 4352” value is greater than 60 mg/L. For the same compound, the “Minimum inhibitory concentration (MIC) Enterococcus hirae ATCC 10541” value in assay [5] was greater than 60 mg/L. In addition, in assay [6], the “Minimum inhibitory concentration (MIC) Epidermophyton floccosum DSM 10709” value is greater than 60 mg/L. Also, in [7], the “Minimum inhibitory concentration (MIC) Aspergillus niger ATCC 6275” value is greater than 60 mg/L. For the same compound, in assay [8], the “Minimum inhibitory concentration (MIC) Salmonella choleraesuis ATCC 10708” value was greater than 60 mg/L. Also, the “Minimum inhibitory concentration (MIC) S. epidermidis ATCC 12228” value in assay [9] came to 30 mg/L (≈ 72.5 µM). In addition, the “Minimum inhibitory concentration (MIC) Micrococcus luteus ATCC 9341” value in assay [10] was 60 mg/L (≈ 145 µM). The “Minimum inhibitory concentration (MIC) Pseudomonas aeruginosa CIP A-22” value in assay [11] is greater than 60 mg/L. Also, in [12], the “Minimum inhibitory concentration (MIC) Candida albicans ATCC 10231” value is reported as “*30 μg/mL”. Also, the “Minimum inhibitory concentration (MIC) Staphylococcus aureus ATCC 9144” value in [13] is listed as “*60 μg/mL”.

The values above are taken from patent US7015228B2, “4-amino-2-(2-pyridyl)pyrimidines as microbicidal active substances” (Ciba Specialty Chemicals Corporation, priority 2001, dated 2006).
